Structures can show the parent of a compound that is named as a salt.
How the values were obtained:
rat brain synaptosomes [1] = experiment: 6-OHDA-induced neurotoxicity, synaptosomal viability; assay type: cell-based; settings: for increase of synaptosomal viability vs. 6-OHDA treatment: 10 µM pretreatment, 6-OHDA 1 h
Method: (§1) Synaptosomes were prepared from brains of adult male Wistar rats. The brains were homogenized in 10 volume of cold buffer 1, containing 5 mM HEPES and 0.32 M sucrose (pH = 7.4). The brain homogenate was centrifuged twice at 1000× g for 5 min at 4 °C. The supernatant was collected and centrifuged 3 times at 10,000× g for 20 min at 4 °C. The pellet was re-suspended in ice-cold buffer 1. The synaptosomes were isolated by using Percoll reagent to prepare the gradient. Synaptosomes were re-suspended and incubated in buffer 2, containing 290 mM NaCl, 0.95 mM MgCl2 × 6H2O, 10 mM KCl, 2.4 mM CaCl2 × H2O, 2.1 mM NaH2PO4, 44 mM HEPES, and 13 mM D-glucose. Incubations were performed in a 5% CO2 + 95% O2 atmosphere. The content of synaptosomal protein was determined according to the method of Lowry et al. using bovine serum albumin as a standard.
Synaptosomal viability was measured by (3-(4,5)-dimethylthiazol-2-yl)-2,5-diphenyl tetrazolium bromide)-test, described by Mungarro-Menchaca et al. The synaptosomes were incubated with the compounds and then treated with (3-(4,5)-dimethylthiazol-2-yl)-2,5-diphenyl tetrazolium bromide) solution (0.5 mg/mL) for 1 h at 37 °C. After incubation they were centrifuged at 15,000× g for 1 min. The formed formazan crystals were dissolved in DMSO (Dimethyl sulfoxide). The extinction was measured spectrophotometrically at λ = 580 nm.
(§2) The metabolism and oxidation of dopamine cause reactive oxygen radicals and reactive quinones to be produced, which could lead to neurotoxicity and neurodegeneration. The synaptosomes were incubated with the compounds (10 µM) for 30 min and then 6-hydroxydopamnine (150 mmol/L) was used to induce neurotoxicity. […] After 1 h, they were centrifuged on a microcentrifuge for 1 min at 15,000 rpm. The precipitates were gently mixed with buffer B and glucose and centrifuged for a second time at 15,000 rpm for 1 min. After the second wash, buffer B and glucose were added to the precipitates.
(§3) In the presented experiments, an in vitro assessment of the possible antioxidant and neuroprotective effects of the newly synthetized compounds was performed in a model of 6-OHDA induced toxicity in rat brain synaptosomes. 6-OHDA is a neurotoxicant that structurally resembles dopamine and can be used in different in vivo and in vitro models for neurotoxicity. This model resembles the histological, biochemical, and physiological characteristics of neurodegenerative diseases such as Parkinson’s and Alzheimer’s disease. […] However, their uptake into brain synaptosomes is similar among primates and rodents and they are suitable in vitro models for PD. The main mechanism of 6-OHDA toxicity includes induction of oxidative stress. It undergoes auto-oxidation or metabolic degradation to p-quinone and produces hydrogen peroxide, superoxide, and hydroxyl radicals. The process causes lipid peroxidation, protein oxidation, and DNA oxidation and finally results in oxidative stress and mitochondrial dysfunction. Rat brain synaptosomes were pretreated with compounds 3e, 3h, 3i, 3m, melatonin, and rasagiline (10 μM); after that, the samples were subjected to 6-OHDA (150 mmol/L, 1 h). The protective effects were evaluated by measurement of synaptosomal viability (MTT-test) and GSH levels (Figure 3).

rat brain synaptosomes [2] = experiment: 6-OHDA-induced neurotoxicity, GSH level; assay type: cell-based; settings: for restoration of GSH level vs. 6-OHDA treatment: 10 µM pretreatment, 6-OHDA 150 mmol/L 1 h
Method: as §1, §2, §3

[3] = MTT cytotoxicity on SH-SY5Y cells; assay type: cell-based, human; settings: human, SH-SY5Y neuroblastoma cells, MTT test, 24 h incubation; read-out: IC50, in vitro cytotoxicity on SH-SY5Y cells
Method: Human neuroblastoma cell line SH-SY5Y was obtained from the European Collection of Cell Cultures (ECACC, Salisbury, UK). The cells were maintained in 75 cm^2 flasks at 37 °C in a humidified atmosphere with 5% CO2 and cultured in RPMI 1640 medium, supplemented with 10% fetal bovine serum and 2 mM L-glutamine.
MTT (Sigma-Aldrich Chemie GmbH, Schnelldorf, Germany) assay is based on interaction between tetrazolium dye 3-(4,5-dimethylthiazol-2-yl)-2,5-diphenyltetrazolium bromide and succinic dehydrogenase in the living cells’ mitochondria. In this reaction, the formed purple formazan crystals indicate the presence of viable cells. SH-SY5Y cells were seeded in 96-well microplates at a density 2.5 × 10^4 cells/well and allowed to attach to the well surface at 37 °C in a humidified atmosphere with 5% CO2 (24 h). Different concentrations of compounds ([…]) were added to cells and incubated for 24 h. For each concentration, a set of at least 8 wells were used. After the treatment, the solution in each well was substituted with MTT (3-(4,5-dimethylthiazol-2-yl)-2,5-diphenyltetrazolium bromide) solution (0.5 mg/mL in culture medium). The microplates were further incubated for 3 h at 37 °C and the obtained formazan crystals were dissolved by 100 µL/well of DMSO. The absorbance was measured in a multiplate reader Synergy 2 (BioTek Instruments, Inc, Highland Park, Winooski, VT, USA) at 570 nm (690 nm for background absorbance).
An important step in the development of new pharmacologically active compounds is the establishment of their safety profile. An in vitro toxicity evaluation was carried out on the neuroblastoma cell line SH-SY5Y, which is a well-established model in neuroscience. The neuroblastoma SH-SY5Y are human derived cells with relatively homogeneous neuroblast-like structure. The cells express a dopamine-β-hydroxylase and tyrosine hydroxylase enzyme activity, specific types of human proteins and protein isoforms. The possible neurotoxic effects of the potential drug candidates were measured by cell viability assay (MTT-test). The IC50 values were used as a robust parameter for comparison. The test compounds were dissolved in DMSO and serially diluted in cell culture medium to achieve final concentrations ranging from 1 to 500 µM; the culture medium containing DMSO in the corresponding concentration was used as untreated controls. A concentration dependent effect on cell viability was observed after 24 h incubation.

SH-SY5Y cells = experiment: H2O2-induced oxidative stress model in SH-SY5Y cells; assay type: cell-based, human; settings: 90 min pre-incubation, H2O2 1 mM 15 min
Method: SH-SY5Y cells were seeded in 96-well plates at a density of 3.5 × 10^4/well and allowed to attach at the wells’ bottom overnight. […] Afterwards, the SH-SY5Y cells were washed with phosphate-buffered saline (PBS) to remove the extracellular amount of the test compounds. […] Then, the contents of all wells were changed with culture medium. After 24 h, the amount of attached viable cells was evaluated by MTT assay. […] Rasagiline and melatonin (Sigma-Aldrich Chemie GmbH) were used as reference compounds because of their well-established neuroprotective activity. […] The toxic mechanisms of hydrogen peroxide include the generation of reactive hydroxyl radicals and formation of products which could damage cellular lipids, proteins and DNA. […] For comparison, the effects of two compounds with well established antioxidant activity—rasagiline and melatonin—were also evaluated.

[4] = Fe(II)-induced oxidative damage of lecithin (TBA-RS); settings: 90 µmol/L, lecithin 1 mg/mL, FeCl2 0.1 mmol/L
Method: The classical method of determining the TBA-reactive substances at 532 nm as described by Asakawa and Matsushita has been used. Two groups of measurement compositions named controls and samples were prepared in phosphate buffer (K2HPO4/KH2PO4, pH 7.4) for each of the used substrates. Both of them contained equivalent concentrations of lecithin (1 mg/mL) or 2-deoxyribose (0.5 mmol/L) and FeCl2 (0.1 mmol/L). In the controls, the tested hydrazones have been omitted and in the samples the effect of the newly designed compounds at the concentrations indicated below the figures has been determined. The obtained samples were incubated at 37 °C for 30 min. The reaction was stopped, and after adding 0.5 mL 2.8% trichloroacetic acid and 0.5 mL of thiobarbituric acid, the samples were heated in boiling water for 20 min. The lecithin containing samples were centrifuged at 3000 rpm for 20 min and the supernatant was aspired out. The results have been presented as a percentage of the control sample, treated only with ferrous iron where we expected maximum oxidative damage under the described conditions.

Structure (SMILES)	reduction of synaptosomal vitality compared to untreated controls (rat brain synaptosomes [1]; 6-OHDA, 1 h)	reduction of GSH level compared to untreated controls (rat brain synaptosomes [2]; 6-OHDA 150 mmol/L, 1 h)	IC50 at 24 h [3]	cell viability protection vs. H2O2-treatment (SH-SY5Y cells; 1 µM)	cell viability protection vs. H2O2-treatment (SH-SY5Y cells; 10 µM)	cell viability protection vs. H2O2-treatment (SH-SY5Y cells; 50 µM)	sample/control absorbance ratio (% of the control), lecithin peroxidation [4]	increase of synaptosomal viability vs. 6-OHDA treatment (rat brain synaptosomes [1])	restoration of GSH level vs. 6-OHDA treatment (rat brain synaptosomes [2])
NCCc1cc(O)c(O)cc1O [6-OHDA, 6-hydroxydopamine, reference compound]	56%	50%	–	–	–	–	–	–	–
COc1ccc2[nH]cc(CCNC(C)=O)c2c1 [Melatonin]	–	–	> 500 µM	20%	29%	52%	75%	68%	70%
C#CCN[C@@H]1CCc2ccccc21 [Rasagiline HCl, Rasagiline]	–	–	> 500 µM	10%	20%	39%	–	61%	60%

— PMC9138090, “Study on the Neuroprotective, Radical-Scavenging and MAO-B Inhibiting Properties of New Benzimidazole Arylhydrazones as Potential Multi-Target Drugs for the Treatment of Parkinson’s Disease” (Antioxidants, 2022)
